Where two headings read alike, the source gives them in different places.
Columns and labels:
[1] = Storage stability of aqueous formulation CE1, PGR content after 1 year; type: physicochemical; details: in aqueous formulation CE1, 1 year of storage
Procedure: Comparative Example 1: A combination of three PGRs (kinetin, GA3, and IBA) were dissolved in water along with a defoamer and a phosphate ester surfactant at the ratios specified in Table CE1: […] This is typical behavior for an aqueous system containing these PGRs.

[2] = Accelerated aging test of formulation E1, 54° C. for 2 weeks; type: physicochemical; details: for 2-Weeks at 54° C.: in formulation E1, after 2 weeks at 54° C.; for Initial Assay: in formulation E1, before accelerated aging; for Percent Change: in formulation E1, initial vs 2 weeks at 54° C.
Procedure: Example 1 (E1): A combination of three PGRs (kinetin, GA3, and IBA) were dissolved in a ternary solvent system containing a high dielectric solvent (DMSO), a medium dielectric solvent (HALLCOMID® M-8-10), and a low dielectric solvent (methyl soyate) with surfactants (ETHOX® CO-40 and ETHFAC® 140) at the ratios specified in Table E1:
The formulation was tested in an accelerated aging test by storing the sample at 54° C. for 2 weeks and measuring the content of the PGRs before and after testing. This was to follow the EPA's Office of Pesticide Programs guidelines for product chemistry and stability.
Table 2 illustrates initial formulation stability and stability at two-weeks as a percentage change in the amount (vol. %) of each PGR: […]

[3] = cited from earlier work
[4] = Solubility of PGRs in solvents
From the text: In some examples, the ratios of the plurality of non-aqueous solvents may be selected based on a relative amount and type of PGR compound selected for the agrochemical formulation. For example, an amount (e.g., vol. %) of a high dielectric solvent may be selected to fully dissolve selected amounts (e.g., vol. %) of one or more PGRs of the plurality of selected PGRs, which may only be soluble, or at least more soluble in, the high dielectric solvent. Additionally, an amount of (e.g., vol. %) of a medium dielectric solvent and/or a low dielectric solvent may be selected for similar reasons.

SMILES | detected level of active ingredient after 1 year of storage [1] | loss of active ingredient after 1 year of storage [1] [%] | 2-Weeks at 54° C. [2] [%] | Initial Assay [2] [%] | Percent Change [2] [%] | chemical breakdown in water [3] | solubility in DMSO ([4]; DMSO) [%] | solubility in vegetable oil or modified vegetable oil solvents ([4]; vegetable oil or modified vegetable oil solvents) | solubility in DMSO [4] [%] | solubility in vegetable oil or modified vegetable oil solvents [4]
O=C(O)CCCc1c[nH]c2ccccc12 [IBA, indole-3-butyric acid] | not detected | 100 | 0.047 | 0.047 | 0.00 | facilitates the chemical breakdown | – | – | – | –
C=C1C[C@]23C[C@@]1(O)CC[C@H]2[C@@]12C=C[C@H](O)[C@@](C)(C(=O)O1)[C@@H]2[C@@H]3C(=O)O [GA3, (3S,3aS,4S,4aS,7S,9aR,9bR,12S)-7,12-Dihydroxy-3-methyl-6-methylene-2-oxoperhydro-4a,7-methano-9b,3-propenoazuleno[1,2-b]furan-4-carboxylic acid] | 0.0005% | 91 | 0.055 | 0.058 | 5.17 | – | 1.5 | virtually insoluble | – | –
c1coc(CNc2ncnc3[nH]cnc23)c1 [kinetin] | 0.0015% | 83 | 0.090 | 0.099 | 9.09 | – | – | – | 3.3 | virtually insoluble
